ChEMBL document CHEMBL4825686, “HTS-based discovery and optimization of novel positive allosteric modulators of the α7 nicotinic acetylcholine receptor” (Eur J Med Chem, 2021)
≈ marks a conversion by molar mass, not a printed value. Calls of active or inactive are those of the source. The rule behind the calls is not given here.

Columns and labels:
[1] = target: Neuronal acetylcholine receptor; alpha3/beta4 (Homo sapiens) (UniProt P30926+P32297); test: Positive allosteric modulator activity at alpha3beta4 nAChR (unknown origin) upto 10 uM by automated Q-patch clamp assay; details: dose microM <=10
[2] = Ratio of drug level in Wistar rat brain to plasma at 1 mg/kg, ip measured after 35 mins by HPLC-MS/MS analysis; type: ADME, organism-based; details: read-out: BPR
[3] = Apparent permeability across apical to basolateral side in vinblastine-treated human Caco-2 cells expressing P-glycoprotein at 10 uM incubated for 120 mins by HPLC analysis; type: ADME
[4] = target: GABA-A receptor; alpha-5/beta-3/gamma-2 (Homo sapiens) (UniProt P18507+P28472+P31644); test: Activation of human alpha5beta3gamma2 GABAA receptor expressed in HEK293 cells assessed as enhancement of GABA induced channel current response at 1 to 10 uM measured after 7 to 10 mins at -80 mV holding potential by whole-cell patch clamp assay; type: cell-based; details: dose 1-10 µM, time 7-10 min
[5] = target: GABA-A receptor; alpha-1/beta-3/gamma-2 (Homo sapiens) (UniProt P14867+P18507+P28472); test: Inhibition of human alpha1beta3gamma2 GABAA receptor expressed in HEK293 cells assessed as inhibition of GABA induced channel current response at 1 to 10 uM measured after 7 to 10 mins at -80 mV holding potential by whole-cell patch clamp assay; type: cell-based; details: dose 1-10 µM, time 7-10 min
[6] = Kinetic solubility of compound; type: physicochemical; details: read-out: Kinetic_solubility
[7] = target: Neuronal acetylcholine receptor subunit alpha-7 (Homo sapiens, UniProt P36544); test: Positive allosteric modulator activity at human alpha7 nAChR expressed in Flp-In-HEK293 cells co-expressing RIC-3 assessed as potentiation of PNU282987-induced calcium influx measured after 10 mins by FLIPR assay; type: cell-based, Flp-In-293; details: read-out: EC50
Neuronal acetylcholine receptor subunit alpha-7, sequence (P36544 whole entry): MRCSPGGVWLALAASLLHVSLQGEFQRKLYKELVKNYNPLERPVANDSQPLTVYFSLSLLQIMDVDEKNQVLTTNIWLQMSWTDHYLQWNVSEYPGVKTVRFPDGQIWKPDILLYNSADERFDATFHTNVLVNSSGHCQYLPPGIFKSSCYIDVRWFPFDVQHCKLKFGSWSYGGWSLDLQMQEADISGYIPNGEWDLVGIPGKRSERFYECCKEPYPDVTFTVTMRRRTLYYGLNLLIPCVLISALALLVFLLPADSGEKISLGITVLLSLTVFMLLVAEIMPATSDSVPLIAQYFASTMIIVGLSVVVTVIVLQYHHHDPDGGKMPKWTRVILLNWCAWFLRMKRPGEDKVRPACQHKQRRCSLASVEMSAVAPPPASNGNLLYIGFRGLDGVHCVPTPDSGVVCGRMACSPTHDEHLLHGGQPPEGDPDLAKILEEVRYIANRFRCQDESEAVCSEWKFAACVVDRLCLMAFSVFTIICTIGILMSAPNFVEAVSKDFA

[8] = Metabolic stability in human liver microsomes assessed as intrinsic clearance at 1 uM measured per mg protein upto 40 mins; type: ADME, Microsome; details: read-out: CLH
[9] = target: T1, Glutamate NMDA receptor (Rattus norvegicus) (UniProt P35439+Q00959+Q00960+Q00961+Q62645+Q8VHN2+Q9R1M7); test: Displacement of [3H]MDL105519 from NMDA receptor in Wistar rat cerebral cortex at 10 uM by displacement binding assay; type: tissue-based
[10] = target: T1, Glutamate NMDA receptor (Rattus norvegicus); test: Displacement of [3H]TCP from NMDA receptor in Wistar rat cerebral cortex at 10 uM by displacement binding assay; type: tissue-based
[11] = target: GABA-A receptor; anion channel (Rattus norvegicus) (UniProt O09028+P15431+P18506+P18508+P19969+P20236+P23574+P23576+P28471+P28473+P30191+P62813+P63079+P63138+Q91ZM7+Q9ES14); test: Displacement of [3H]flunitrazepam from GABAA receptor in Wistar rat brain without cerebellum at 10 uM by displacement binding assay; type: tissue-based
[12] = Efflux ratio of apparent permeability from basolateral to apical side over apical to basolateral side in vinblastine-treated human Caco-2 cells expressing P-glycoprotein at 10 uM incubated for 120 mins by HPLC analysis; type: ADME
[13] = target: Voltage-gated inwardly rectifying potassium channel KCNH2 (Homo sapiens, UniProt Q12809); test: Inhibition of human ERG channel expressed in CHO cells measured after 7 to 10 mins at -80 mV holding potential by whole cell patch clamp assay; type: cell-based
Voltage-gated inwardly rectifying potassium channel KCNH2, sequence (Q12809 whole entry): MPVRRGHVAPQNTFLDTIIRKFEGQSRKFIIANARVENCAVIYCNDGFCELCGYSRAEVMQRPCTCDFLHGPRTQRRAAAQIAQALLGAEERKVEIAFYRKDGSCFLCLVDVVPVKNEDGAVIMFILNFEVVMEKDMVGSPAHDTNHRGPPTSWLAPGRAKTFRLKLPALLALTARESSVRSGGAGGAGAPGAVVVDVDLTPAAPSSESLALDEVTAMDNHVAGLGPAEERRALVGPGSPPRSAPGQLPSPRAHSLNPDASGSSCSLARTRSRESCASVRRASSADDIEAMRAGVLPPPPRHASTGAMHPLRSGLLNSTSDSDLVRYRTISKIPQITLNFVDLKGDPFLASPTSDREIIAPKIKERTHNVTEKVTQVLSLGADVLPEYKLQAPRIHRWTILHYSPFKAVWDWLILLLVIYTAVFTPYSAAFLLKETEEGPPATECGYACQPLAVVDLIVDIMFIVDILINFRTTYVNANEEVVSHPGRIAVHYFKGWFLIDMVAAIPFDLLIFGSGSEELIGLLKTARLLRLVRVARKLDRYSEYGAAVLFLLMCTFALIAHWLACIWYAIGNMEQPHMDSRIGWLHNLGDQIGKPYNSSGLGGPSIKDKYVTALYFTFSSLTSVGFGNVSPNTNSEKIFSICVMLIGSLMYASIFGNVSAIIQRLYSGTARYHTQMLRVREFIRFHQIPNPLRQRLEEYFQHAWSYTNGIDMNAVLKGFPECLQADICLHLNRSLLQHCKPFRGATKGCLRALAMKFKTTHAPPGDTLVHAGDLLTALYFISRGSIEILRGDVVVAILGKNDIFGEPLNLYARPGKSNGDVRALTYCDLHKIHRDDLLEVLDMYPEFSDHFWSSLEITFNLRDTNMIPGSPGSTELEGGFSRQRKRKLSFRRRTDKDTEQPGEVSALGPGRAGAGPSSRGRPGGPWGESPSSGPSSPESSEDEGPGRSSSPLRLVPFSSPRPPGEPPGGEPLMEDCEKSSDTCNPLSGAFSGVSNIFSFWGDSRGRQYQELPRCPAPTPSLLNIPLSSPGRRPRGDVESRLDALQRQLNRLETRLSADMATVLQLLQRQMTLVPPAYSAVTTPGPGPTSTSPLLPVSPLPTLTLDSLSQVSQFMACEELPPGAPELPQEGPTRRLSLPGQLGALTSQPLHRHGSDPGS

[14] = Drug uptake in NMRI mouse brain at 1 mg/kg, ip measured after 1 hr by HPLC-MS/MS analysis; type: ADME, organism-based; details: read-out: Ct
[15] = Drug uptake in NMRI mouse brain at 3 mg/kg, ip measured after 1 hr by HPLC-MS/MS analysis; type: ADME, organism-based; details: read-out: Ct
[16] = Plasma concentration in NMRI mouse at 0.1 mg/kg, ip measured after 1 hr by HPLC-MS/MS analysis; type: ADME, organism-based
[17] = Plasma concentration in NMRI mouse at 0.3 mg/kg, ip measured after 1 hr by HPLC-MS/MS analysis; type: ADME, organism-based
[18] = Plasma concentration in NMRI mouse at 1 mg/kg, ip measured after 1 hr by HPLC-MS/MS analysis; type: ADME, organism-based
[19] = Plasma concentration in NMRI mouse at 10 mg/kg, ip measured after 1 hr by HPLC-MS/MS analysis; type: ADME, organism-based
[20] = Ratio of drug level in NMRI mouse brain to plasma at 0.1 mg/kg, ip measured after 1 hr by HPLC-MS/MS analysis; type: ADME, organism-based; details: read-out: BPR
[21] = Ratio of drug level in NMRI mouse brain to plasma at 1 mg/kg, ip measured after 1 hr by HPLC-MS/MS analysis; type: ADME, organism-based; details: read-out: BPR
[22] = Ratio of drug level in NMRI mouse brain to plasma at 3 mg/kg, ip measured after 1 hr by HPLC-MS/MS analysis; type: ADME, organism-based; details: read-out: BPR
[23] = Drug uptake in Wistar rat brain at 1 mg/kg, ip measured after 35 mins by HPLC-MS/MS analysis; type: ADME, organism-based; details: read-out: Ct
[24] = Plasma concentration in Wistar rat at 1 mg/kg, ip measured after 35 mins by HPLC-MS/MS analysis; type: ADME, organism-based
[25] = Plasma concentration in Wistar rat at 3 mg/kg, ip measured after 35 mins by HPLC-MS/MS analysis; type: ADME, organism-based
[26] = Mutagenicity in Salmonella typhimurium TA1535 in presence of rat liver S9 fraction by AMES test; type: toxicity, subcellular; details: salmonella enterica subsp. enterica serovar typhimurium
[27] = Mutagenicity in Salmonella typhimurium TA98 in presence of rat liver S9 fraction by AMES test; type: toxicity, subcellular; details: salmonella enterica subsp. enterica serovar typhimurium
[28] = Mutagenicity in Salmonella typhimurium TA1537 in presence of rat liver S9 fraction by AMES test; type: toxicity, subcellular; details: salmonella enterica subsp. enterica serovar typhimurium
[29] = Mutagenicity in Salmonella typhimurium TA1537 in absence of rat liver S9 fraction by AMES test; type: toxicity; details: salmonella enterica subsp. enterica serovar typhimurium
[30] = Mutagenicity in Salmonella typhimurium TA1535 in absence of rat liver S9 fraction by AMES test; type: toxicity; details: salmonella enterica subsp. enterica serovar typhimurium

Activity [1]: inactive | Kp at 35 min [2]: 4.93 | Papp A→B at 2 h, 10 µM [3]: 30.7 ×10⁻⁶ cm/s | Activity [4]: < 7% | inhibition [5]: < 7% | solubility kinetic [6]: 41.6 µM (≈ 16.2 µg/mL) | EC50 [7]: 0.09 µM | microsomal CLint at 1 µM [8]: 15 µL/min/mg | inhibition [9]: < 15% | inhibition [10]: < 15% | inhibition [11]: < 15% | efflux ratio at 2 h, 10 µM [12]: 0.7 | concentration at 1 h [14]: 39 nM | concentration at 1 h [15]: 64 nM | concentration at 1 h [16]: 2.1 nM | concentration at 1 h [17]: 4.3 nM | concentration at 1 h [18]: 21 nM | concentration at 1 h [19]: 142 nM | Kp at 1 h [20]: 1.32 | Kp at 1 h [21]: 1.88 | Kp at 1 h [22]: 1.68 | concentration at 35 min [23]: 135 nM | concentration at 35 min [24]: 28 nM | concentration at 35 min [25]: 54 nM
SMILES: Cc1ccc(CN2CCN(C(=O)C(=O)Nc3ccc4c(ccn4C)c3)CC2)cc1
IC50 [13]: 7.5 µM | Activity [26]: Non-Toxic | Activity [27]: Non-Toxic | Activity [28]: Non-Toxic | Activity [29]: Non-Toxic | Activity [30]: Non-Toxic
